Active and inactive are the calls of the source. The rule behind the calls is not given here.
System: CCRIS mutagenicity, Ames/micronucleus/aberration tests
Experiment: CCRIS mutagenicity studies
[1] = Test System: AMES SALMONELLA TYPHIMURIUM, Strain/Indicator: TA98, Metabolic Activation: NONE, Method: STANDARD PLATE
[2] = Test System: AMES SALMONELLA TYPHIMURIUM, Strain/Indicator: TA98, Metabolic Activation: RAT, LIVER, S-9, AROCLOR 1254, Method: STANDARD PLATE
[3] = Test System: AMES SALMONELLA TYPHIMURIUM, Strain/Indicator: TA100, Metabolic Activation: NONE, Method: STANDARD PLATE
[4] = Test System: AMES SALMONELLA TYPHIMURIUM, Strain/Indicator: TA100, Metabolic Activation: RAT, LIVER, S-9, AROCLOR 1254, Method: STANDARD PLATE
[5] = Test System: AMES SALMONELLA TYPHIMURIUM, Strain/Indicator: TA1535, Metabolic Activation: NONE, Method: STANDARD PLATE
[6] = Test System: AMES SALMONELLA TYPHIMURIUM, Strain/Indicator: TA100, Metabolic Activation: RAT, LIVER, S-9, PHENOBARBITAL, Method: STANDARD PLATE

With `Clc1cc(Cl)c(Cl)cc1Cl` the mutagenic call (End Point: IN VITRO CHROMOSOMAL ABERRATIONS, Test System: CHO-LB CELLS, Metabolic Activation: NONE) was “inactive; negative”, the mutagenic call (End Point: IN VITRO CHROMOSOMAL ABERRATIONS, Test System: CHO-LB CELLS, Metabolic Activation: RAT, LIVER, S-9, AROCLOR 1254) was “inactive; negative” and the mutagenic call (Test System: AMES SALMONELLA TYPHIMURIUM, Strain/Indicator: TA98, Metabolic Activation: HAMSTER, LIVER, S-9, AROCLOR 1254, Method: STANDARD PLATE) was “inactive; negative”. For the same molecule, the mutagenic call [1] was “inactive; negative”, the mutagenic call [2] was “inactive; negative” and the mutagenic call (Test System: AMES SALMONELLA TYPHIMURIUM, Strain/Indicator: TA100, Metabolic Activation: HAMSTER, LIVER, S-9, AROCLOR 1254, Method: STANDARD PLATE) was “inactive; negative”. For the same molecule, the mutagenic call [3] was “inactive; negative”, the mutagenic call [4] was “inactive; negative” and the mutagenic call (Test System: AMES SALMONELLA TYPHIMURIUM, Strain/Indicator: TA1535, Metabolic Activation: HAMSTER, LIVER, S-9, AROCLOR 1254, Method: STANDARD PLATE) was “inactive; negative”. For the same molecule, the mutagenic call [5] was “inactive; negative”, the mutagenic call (Test System: AMES SALMONELLA TYPHIMURIUM, Strain/Indicator: TA1535, Metabolic Activation: RAT, LIVER, S-9, AROCLOR 1254, Method: STANDARD PLATE) was “inactive; negative” and the mutagenic call (Test System: AMES SALMONELLA TYPHIMURIUM, Strain/Indicator: TA1537, Metabolic Activation: HAMSTER, LIVER, S-9, AROCLOR 1254, Method: STANDARD PLATE) was “inactive; negative”. For the same molecule, the mutagenic call (Test System: AMES SALMONELLA TYPHIMURIUM, Strain/Indicator: TA1537, Metabolic Activation: NONE, Method: STANDARD PLATE) was “inactive; negative”, the mutagenic call (Test System: AMES SALMONELLA TYPHIMURIUM, Strain/Indicator: TA1537, Metabolic Activation: RAT, LIVER, S-9, AROCLOR 1254, Method: STANDARD PLATE) was “inactive; negative” and the mutagenic call (Test System: AMES SALMONELLA TYPHIMURIUM, Strain/Indicator: TA1538, Metabolic Activation: HAMSTER, LIVER, S-9, AROCLOR 1254, Method: STANDARD PLATE) was “inactive; negative”. The mutagenic call (Test System: AMES SALMONELLA TYPHIMURIUM, Strain/Indicator: TA1538, Metabolic Activation: NONE, Method: STANDARD PLATE) was “inactive; negative”, the mutagenic call (Test System: AMES SALMONELLA TYPHIMURIUM, Strain/Indicator: TA1538, Metabolic Activation: RAT, LIVER, S-9, AROCLOR 1254, Method: STANDARD PLATE) was “inactive; negative” and the mutagenic call (Test System: MOUSE LYMPHOMA, Strain/Indicator: L5178Y (TK+/TK-), Metabolic Activation: NONE, Method: SUSPENSION/PLATE) was “inactive; negative. reevaluation of results: negative”. For the same molecule, the mutagenic call (Test System: MOUSE LYMPHOMA, Strain/Indicator: L5178Y (TK+/TK-), Metabolic Activation: RAT, LIVER, S-9, AROCLOR 1254, Method: SUSPENSION/PLATE) was “inactive; negative. reevaluation of results: negative”.

With `OC(CCl)CCl` the mutagenic call (Test System: AMES SALMONELLA TYPHIMURIUM, Strain/Indicator: TA97, Metabolic Activation: HAMSTER, LIVER, S-9, AROCLOR 1254 (10%), Method: PREINCUBATION) was “active; positive”, the mutagenic call (Test System: AMES SALMONELLA TYPHIMURIUM, Strain/Indicator: TA97, Metabolic Activation: NONE, Method: PREINCUBATION) was “inactive; negative” and the mutagenic call (Test System: AMES SALMONELLA TYPHIMURIUM, Strain/Indicator: TA97, Metabolic Activation: RAT, LIVER, S-9, AROCLOR 1254 (10%), Method: PREINCUBATION) was “inactive; negative”. For the same molecule, the mutagenic call (Test System: AMES SALMONELLA TYPHIMURIUM, Strain/Indicator: TA98, Metabolic Activation: HAMSTER, LIVER, S-9, AROCLOR 1254 (10%), Method: PREINCUBATION) was “active; positive”, the mutagenic call (Test System: AMES SALMONELLA TYPHIMURIUM, Strain/Indicator: TA98, Metabolic Activation: NONE, Method: PREINCUBATION) was “inactive; negative” and the mutagenic call (Test System: AMES SALMONELLA TYPHIMURIUM, Strain/Indicator: TA98, Metabolic Activation: RAT, LIVER, S-9, AROCLOR 1254 (10%), Method: PREINCUBATION) was “inactive; negative”. For the same molecule, the mutagenic call (Test System: AMES SALMONELLA TYPHIMURIUM, Strain/Indicator: TA100, Metabolic Activation: ADH AND NAD+ (5 OR 50 µL), Method: PREINCUBATION) was “active; positive”, the mutagenic call (Test System: AMES SALMONELLA TYPHIMURIUM, Strain/Indicator: TA100, Metabolic Activation: HAMSTER, LIVER, S-9, AROCLOR 1254 (10%), Method: PREINCUBATION) was “active; positive” and the mutagenic call (Test System: AMES SALMONELLA TYPHIMURIUM, Strain/Indicator: TA100, Metabolic Activation: MOUSE, LIVER, S-9, PHENOBARBITAL, Method: STANDARD PLATE) was “active; positive”. For the same molecule, the mutagenic call (Test System: AMES SALMONELLA TYPHIMURIUM, Strain/Indicator: TA100, Metabolic Activation: NONE, Method: PREINCUBATION) was “active; positive”, the mutagenic call [3] was “active; positive” and the mutagenic call (Test System: AMES SALMONELLA TYPHIMURIUM, Strain/Indicator: TA100, Metabolic Activation: RAT, LIVER, S-9, AROCLOR 1254 (10%), Method: PREINCUBATION) was “active; positive”. For the same molecule, the mutagenic call (Test System: AMES SALMONELLA TYPHIMURIUM, Strain/Indicator: TA100, Metabolic Activation: RAT, LIVER, S-9, AROCLOR 1254 (NAD+), Method: PREINCUBATION) was “active; positive”, the mutagenic call (Test System: AMES SALMONELLA TYPHIMURIUM, Strain/Indicator: TA100, Metabolic Activation: RAT, LIVER, S-9, AROCLOR 1254 (NADP+), Method: PREINCUBATION) was “active; positive” and the mutagenic call (Test System: AMES SALMONELLA TYPHIMURIUM, Strain/Indicator: TA100, Metabolic Activation: RAT, LIVER, S-9, PCB, Method: STANDARD PLATE) was “active; positive”. For the same molecule, the mutagenic call [6] was “active; positive”, the mutagenic call (Test System: AMES SALMONELLA TYPHIMURIUM, Strain/Indicator: TA1535, Metabolic Activation: ADH AND NAD+ (50 µL), Method: PREINCUBATION) was “active; positive” and the mutagenic call (Test System: AMES SALMONELLA TYPHIMURIUM, Strain/Indicator: TA1535, Metabolic Activation: HAMSTER, LIVER, S-9, AROCLOR 1254 (10%), Method: PREINCUBATION) was “active; positive”. For the same molecule, the mutagenic call (Test System: AMES SALMONELLA TYPHIMURIUM, Strain/Indicator: TA1535, Metabolic Activation: NONE, Method: PREINCUBATION) was “active; positive”, the mutagenic call [5] was “active; positive” and the mutagenic call (Test System: AMES SALMONELLA TYPHIMURIUM, Strain/Indicator: TA1535, Metabolic Activation: RAT, LIVER, S-9, AROCLOR 1254 (10%), Method: PREINCUBATION) was “active; positive”. The mutagenic call (Test System: AMES SALMONELLA TYPHIMURIUM, Strain/Indicator: TA1535, Metabolic Activation: RAT, LIVER, S-9, AROCLOR 1254 (ADH AND NAD+), Method: PREINCUBATION) was “active; positive”, the mutagenic call (Test System: AMES SALMONELLA TYPHIMURIUM, Strain/Indicator: TA1535, Metabolic Activation: RAT, LIVER, S-9, AROCLOR 1254 (NADP+), Method: PREINCUBATION) was “active; positive” and the mutagenic call (Test System: AMES SALMONELLA TYPHIMURIUM, Strain/Indicator: TA1535, Metabolic Activation: RAT, LIVER, S-9, PCB, AROCLOR 1254, Method: STANDARD PLATE) was “active; positive”.

For `Nc1c2ccccc2nc2ccc(I)cc12`, the mutagenic call (Test System: AMES SALMONELLA TYPHIMURIUM, Strain/Indicator: TA1537, Metabolic Activation: NONE, Method: PREINCUBATION) was “active; positive”.

For `Nc1c(N=Nc2ccc([N+](=O)[O-])cc2)c(S(=O)(=O)O)cc2c1C(=O)/C(=N\Nc1ccc(-c3ccc(NN=C4C=CC(=O)C=C4)cc3)cc1)C(S(=O)(=O)O)=C2`, the mutagenic call (Test System: AMES SALMONELLA TYPHIMURIUM, Strain/Indicator: TA98, Metabolic Activation: HAMSTER, LIVER, S-9, Method: PREINCUBATION (PRIVAL METHOD)) was “active; positive”, the mutagenic call [1] was “inactive; negative” and the mutagenic call (Test System: AMES SALMONELLA TYPHIMURIUM, Strain/Indicator: TA98, Metabolic Activation: RAT, LIVER, S-9, PHENOBARBITAL, Method: STANDARD PLATE) was “inactive; negative”. The mutagenic call [3] was “inactive; negative” and the mutagenic call [6] was “inactive; negative”.

For `O=S(=O)(c1ccc(Cl)cc1)c1cc(Cl)c(Cl)cc1Cl`, the mutagenic call (End Point: In vivo chromosomal aberrations, Test System: Bone marrow cells, Species: Rat, Strain/Sex: Wistar/Female, Route: Oral) was “inactive; negative”, the mutagenic call (Test System: AMES SALMONELLA TYPHIMURIUM, Strain/Indicator: TA97A, Metabolic Activation: NONE, Method: STANDARD PLATE) was “inactive; negative” and the mutagenic call (Test System: AMES SALMONELLA TYPHIMURIUM, Strain/Indicator: TA97A, Metabolic Activation: RAT, LIVER, S-9, AROCLOR 1254, Method: STANDARD PLATE) was “inactive; negative”. The mutagenic call [1] was “inactive; negative”, the mutagenic call [2] was “inactive; negative” and the mutagenic call [3] was “inactive; negative”. The mutagenic call [4] was “inactive; negative”, the mutagenic call (Test System: AMES SALMONELLA TYPHIMURIUM, Strain/Indicator: TA102, Metabolic Activation: NONE, Method: STANDARD PLATE) was “inactive; negative” and the mutagenic call (Test System: AMES SALMONELLA TYPHIMURIUM, Strain/Indicator: TA102, Metabolic Activation: RAT, LIVER, S-9, AROCLOR 1254, Method: STANDARD PLATE) was “inactive; negative”.

Reference: PubChem BioAssay AID1259407 (Chemical Carcinogenesis Research Information System (CCRIS), 2018)
